# Measured values taken from patent US20220046919A1, “SYNERGISTIC INSECTICIDAL COMBINATIONS” (UPL LTD, priority 2019, published 2022).
# Entries after “also recorded” stand apart in the source; their conditions may differ.
# Experiments:
# [1] = system: Okra (Abelmoschus esculentum L); assay: Phytotoxicity / crop safety on Okra in the field trial; assay type: in vivo; details: both application rates, 4 ml & 5 ml/lit of water
# Protocol: (§1) Field trials were conducted to study the effect of the combination of Denatonium benzoate with insecticides. The following three combinations were tested on the control of Jassids species Amrasca bigutula bigutula in the crop of infected Okra (Abelmoschus esculentum L) over the use of insecticides alone. • Denatonium benzoate+Flonicamid • Denatonium benzoate+Thiamethoxam • Denatonium benzoate+Imidacloprid
# (§2) Both phytotoxicity and percentage control of the Jassids was measured.
# The safety of Denatonium Benzoate (DB) combinations according to present invention on Okra was evaluated. It is observed that the DB combinations according to the present invention are safe and no Phytotoxicity is observed.
# [2] = system: Amrasca bigutula bigutula; assay: Field trial: control of Jassids in infected Okra; assay type: in vivo; details: Denatonium Benzoate alone
# Protocol: as §1, §2
# T-1, T-2 and T-3 are the treatment with insecticidal combinations according to the present invention; T-4, T-5 and T-6 are the treatment with insecticides alone; T-7 and T-8 are the treatment with Denatonium benzoate (DB) liquid solutions alone and T-9 is the control.
# Bio-efficacy of insecticidal combinations of the present invention against Jassids in infected Okra were evaluated. The percentage control of Jassids was measured. Efficacy was evaluated as: Excellent 91-100%, Very good 81-90%, Good 71-80%, Moderate 51-70%, Poor<50%.
# [3] = in vivo; cited from earlier work
# [4] = cited from earlier work
structure (smiles),measurement,setting,value
"CC[N+](CC)(CC(=O)Nc1c(C)cccc1C)Cc1ccccc1.O=C([O-])c1ccccc1 [Denatonium benzoate, phenylmethyl-[2-[(2,6-dimethylphenyl)amino]-2-oxoethyl]-diethylammonium benzoate]",Selectivity: crop safety on okra,[1],Good crop safety
same,"control of Jassids / insecticidal activity, in words",[2],no significant control of Jassids; also recorded: does not exhibit any insecticidal activity
same,human safety in clinical trials,[3],extremely human safe
same,concentration with generally recognized bitter taste,[4]; in vivo,50 ppb
same,concentration detected by the average person,[4]; taste detection,10 ppb
